# Entries after “also recorded” stand apart in the source; their conditions may differ.
# How the values were obtained:
# peptide-pulsed C1R-A03 [1] = experiment: IFN-gamma ELISA of CTL lines and CTL clones (HLA-A*0301); assay type: cell-based, human; details: for IFN-gamma production of CTL clones: CTL clones by limiting dilution; for IFN-gamma production of CTL lines: peptide-pulsed vs non-pulsed target cells, HLA-A*0301
# Procedure: CTLs were propagated in culture using methods similar to those disclosed by Riddell et al. (Walter E A et al., N Engl J Med 1995, 333(16): 1038-44; Riddell S R et al., Nat Med 1996, 2(2): 216-23). The CTLs were co-cultured in a total of 25 ml AIM-V medium containing 5% AS (AIM-V/5% AS) and 40 ng/ml anti-CD3 antibody with two types of Mitomycin C-treated human B lymphoblastoid cell lines at 5×10^6 cells/flask. One day after beginning of the culturing, 120 IU/ml IL-2 was added to the culture. On days 5, 8 and 11, a fresh AIM-V/5% AS medium containing 30 IU/ml IL-2 was added to the culture (Tanaka H et al., Br J Cancer 2001, 84(1): 94-9; Umano Y et al., Br J Cancer 2001, 84(8): 1052-7; Uchida N et al., Clin Cancer Res 2004, 10(24): 8577-86; Suda T et al., Cancer Sci 2006, 97(5): 411-9; Watanabe T et al., Cancer Sci 2005, 96(8): 498-506).
# Dilution of CTLs was carried out to make 0.3, 1 and 3 cells/well in 96 round-bottomed microtiter plates (Nalge Nunc International). The CTLs were co-cultured with two types of Mitomycin C-treated human B lymphoblastoid cell lines at 1×10^4 cells/well in a total of 150 micro-l/well AIM-V/5% AS medium with 30 ng/ml anti-CD3 antibody and 125 IU/ml IL-2. Ten days later, IL-2 was added to the medium at 50 micro-l/well to reach a final concentration of 125 IU/ml. On day 14, the CTL activity was tested, and the CTL clones were propagated using the same method as described above (Uchida N et al., Clin Cancer Res 2004, 10(24): 8577-86; Suda T et al., Cancer Sci 2006, 97(5): 411-9; Watanabe T et al., Cancer Sci 2005, 96(8): 498-506).
# (§1) Specifically, peptide-pulsed C1R-A03 (1×10^4 cells/well) was prepared as the stimulator cell. The induced CTLs, i.e., CTL lines and CTL clones, were used as the responder cell. The IFN-gamma ELISPOT assay and IFN-gamma ELISA were performed according to the manufacturer's manual.
# peptide-pulsed C1R-A03 [2] = experiment: IFN-gamma ELISPOT assay of peptide-induced CTLs (HLA-A*0301); assay type: cell-based, human; details: CTLs induced from HLA-A*0301-positive donors, peptide-pulsed C1R-A03 vs control
# Excerpt: Monocyte-derived dendritic cells (DCs) were used as the antigen-presenting cell to induce a cytotoxic T lymphocyte (CTL) response against peptides presented on human leukocyte antigens (HLAs). As described in the other sections, DCs were generated in vitro (Nakahara S et al., Cancer Res 2003, 63(14): 4112-8). Specifically, peripheral-blood mononuclear cells isolated from healthy volunteers (HLA-A*0301-positive) with the Ficoll-Paque plus solution (Pharmacia) were separated by attaching to plastic tissue culture dishes (Becton Dickinson) and concentrated as a monocyte fraction. The monocyte-concentrated population was cultured in the presence of 1000 IU/ml granulocyte macrophage colony-stimulating factor (R&D System) and 1000 IU/ml interleukin(IL)-4 (R&D System) in an AIM-V medium (Invitrogen) containing 2% heat-inactivated autologous serum (AS). After seven days of culturing, the cytokine-induced DCs were pulsed with 20 micro-g/ml each of the synthesized peptides in an AIM-V medium at 37 degrees C. for three hours in the presence of 3 micro-g/ml beta 2-microglobulin. The generated cells appeared to express on their cell surface DC-associated molecules such as CD80, CD83, CD86 and HLA class II (data not shown). Next, these peptide-pulsed DCs were inactivated by X-ray irradiation (20 Gy), and mixed in a 1:20 ratio with autologous CD8^+ T cells obtained by positive selection using the CD8 Positive Isolation Kit (Dynal). These culture products were seeded in a 48-well plate (Corning). Each well was made to contain 1.5×10^4 peptide-pulsed DCs, 3×10^5 CD8^+ T cells and 10 ng/ml IL-7 (R&D System) in 0.5 ml of the AIM-V/2% AS medium. Three days later, these culture products were added with a final concentration of 20 IU/ml IL-2 (CHIRON). On day 7 and day 14, T cells were further stimulated with peptide-pulsed autologous DCs. The DCs were prepared every time by the same method as above. On day 21, after the third peptide stimulation, CTLs were examined against the peptide-pulsed C1R-A03 by a human interferon (IFN)-gamma enzyme-linked immunospot (ELISPOT) assay (Tanaka H et al., Br J Cancer 2001, 84(1): 94-9; Umano Y et al., Br J Cancer 2001, 84(8): 1052-7; Uchida N et al., Clin Cancer Res 2004, 10(24): 8577-86; Suda T et al., Cancer Sci 2006, 97(5): 411-9; Watanabe T et al., Cancer Sci 2005, 96(8): 498-506).
# as §1
# [3] = tested on: COS7 cells transfected with CDCA1 and HLA-A*1101; experiment: Specific CTL activity against target cells expressing CDCA1 and HLA-A*1101; assay type: cell-based, African green monkey; details: listed as CDCA1-A11-9-219
# Excerpt: A cDNA encoding the open-reading frame of a target gene or HLA-A*1101 was amplified by PCR. The PCR-amplified product was cloned into an expression vector. Either or both of the target gene-expressing vector and the HLA-A*1101-expressing vector were transfected into COS7, which is a cell line negative for the target gene and HLA, using Lipofectamine 2000 (Invitrogen) following the manufacturer's recommended protocol. Two days after transfection, the transfected cells were harvested using versene (Invitrogen), and used as the target cell for CTL activity assay (5×10^4 cells/well).
# The CTL clone established against CDCA-A11-9-219 (SEQ ID NO: 7) was investigated for its ability to recognize target cells expressing CDCA1 and the HLA-A*1101 molecule. COS7 cells transfected with both full-length CDCA1 and the HLA-A*1101 gene (a specific model of target cells expressing CDCA1 and the HLA-A*1101 gene) were prepared as the target cell. COS7 cells transfected with either full-length CDCA1 or HLA-A*1101 were prepared as the control.
Sequence,"IFN-gamma production of CTL clones (peptide-pulsed C1R-A03 [1]; peptide-pulsed C1R-A03, listed as CDCA1-A03-10-400)",IFN-gamma production of CTL lines (peptide-pulsed C1R-A03 [1]),peptide-specific CTL activity (IFN-gamma production) (peptide-pulsed C1R-A03 [2]; listed as CDCA1-A03-10-400),specific CTL activity of CTL clone ([3]; COS7 cells transfected with both CDCA1 and HLA-A*1101),specific CTL activity of CTL clone against control cells ([3]; COS7 cells transfected with either full-length CDCA1 or HLA-A*1101),"IFN-gamma production of CTL clones (peptide-pulsed C1R-A03 [1]; peptide-pulsed C1R-A03, listed as CDCA1-A03-9-219)",peptide-specific CTL activity (IFN-gamma production) (peptide-pulsed C1R-A03 [2]; listed as CDCA1-A03-9-219)
KIKLGIQQLK (a peptide derived from CDCA1) [SEQ ID NO: 38],Potent IFN-gamma production,potent IFN-gamma production,potent IFN-gamma production; also recorded: significant specific CTL activity,,,,
KTKRLNELK (a peptide derived from CDCA1) [SEQ ID NO: 7],,potent IFN-gamma production,,specific CTL activity; also recorded: potent CTL activity,a significant specific CTL activity was not shown; also recorded: a significant specific CTL activity was not detected,Potent IFN-gamma production,potent IFN-gamma production; also recorded: significant specific CTL activity

# Source: patent US10676514B2, “CDCA1-derived peptide and vaccine containing same” (ONCOTHERAPY SCIENCE, INC., priority 2014, dated 2020)
